Converted amounts (≈) assume the structure as drawn.
Experiments:
[1] = Fish embryo acute toxicity (FET): lethality and dysmorphogenesis; type: in vivo; details: zebrafish, in vivo, exposure 2 to 72 hpf, read at 72 hpf
Description: (§1) Zebrafish provide a widely used vertebrate model for cost-effective, in vivo whole-organism screening.
(§2) (2 mM CaCl2•2 H2O; 0.5 mM MgSO4•7 H2O; 0.75 mM NaHCO3; 0.07 mM KCl). The fish were maintained at a temperature of 26 ± 1 °C on a 14-h light and 10-h dark cycle and were fed daily in the morning with Artemia salina, then with commercial flake food in the afternoon (SDS400, Special Diet Services, Dietex, France). For optimal Zebrafish reproduction, we used animals between 6 months and a year old. The day before the eggs were needed, males and females were placed in a breeding tank with plants at a 2:1 male-to-female ratio (usually using 8 males and 4 females in a big breeding tank). The following morning, eggs were collected 30 min after the lights were turned on. […] Fertilized, non-coagulated, and synchronously divided eggs were selected using a stereomicroscope (Motic SMZ168, Motic Hong Kong Ltd., Hong Kong, China) and transferred to 6-well plates (10 embryos/well). The embryos were exposed to freshly prepared tested concentrations of the compound in 0.3× Danieau’s solution. The chemical stock solution was prepared in 100% dimethylsulfoxide (DMSO) and subsequently diluted in Danieau’s buffer with a final DMSO concentration of 1% (v/v). Testing was carried out using five concentrations with a negative control of solvent with 1% of DMSO. Embryos were incubated at 27 ± 1 °C with a light:dark cycle of 14:10 h until 72 h post-fertilization (hpf) under semi-static conditions, as exposure solutions were renewed with freshly prepared solutions every 24 h. • Lethality and dysmorphogenesis evaluation At 24, 48, and 72 hpf, the embryos were observed under a stereomicroscope to assess lethality. […] At the end of the test, dysmorphogenesis was evaluated in the live embryos only. The average lethality and dysmorphogenesis were calculated for 10 embryos per concentration, followed by averaging the results of at least three independent experiments. […] Subsequently, the TER test was conducted according to the protocol described by Guzman et al.. […] The distance was averaged and converted from pixels to millimeters. This assay was performed only on larvae from concentration groups where both the lethality and dysmorphogenesis were less than 20%. Six larvae per concentration group were evaluated in at least three independent experiments. • Statistical analysis Statistical analysis was performed using GraphPad Prism v.10.0.2. The TER test was analyzed using a one-way ANOVA and a post hoc multiple-comparison Dunnett test. The significance threshold was established at p < 0.05.

Zebrafish embryos = test: as above; type: in vivo
Description: as §1, §2

[2] = test system: murine Swiss albino fibroblast (3T3) cell line; test: Cell viability, NRU assay, 3T3; type: cell-based; details: Mus musculus, 24 h incubation, NRU endpoint
Description: (§3) Two different endpoints, 3-(4,5-dimethyl-2-thiazolyl)-2,5-diphenyltetrazolium bromide (MTT) and neutral red uptake (NRU), were used to assess differences in cell-induced cytotoxicity. […] In addition, NRU evaluates the interaction of these drugs with the plasmatic membrane. Cell responses were determined from the MTT [16] and NRU [17] assays, using the two proposed cell lines. Cytotoxicity assays were performed at concentrations equal to 80 and 250 µg/mL. The IC50 value, referring to the half-maximal inhibitory concentration, was determined as a key parameter in cytotoxicity studies (Table 1). It plays a crucial role in evaluating cell viability and assessing cellular responses to various drugs or toxins. For cases where IC50 values were below 80 µg/mL, additional studies at lower concentrations were conducted to accurately determine these values. […] The selectivity index (SI), used as a measurement of action against the tumor cell line in comparison with a normal cell line, was also included.
(§4) • In Vitro Assay Using Human Erythrocytes • - Acquisition and Extraction of the Erythrocytes Human blood samples were obtained from the Banc de Sang i Teixits de Barcelona (Spain) from the Catalan Department of Health. Blood was deposited in tubes with the anticoagulant EDTA-K3. Blood samples were centrifuged at 3000 rpm and 4 °C for 10 min (Megafuge 2.0 R. Heraeus Instruments, Hanau, Germany) to induce sedimentation. Plasma was extracted with a Pasteur pipette. Next, the residual pellet was washed with PBS at pH 7.4. This procedure was repeated three times to remove residual leukocytes and platelets and to concentrate the erythrocytes. Following the last wash, the erythrocyte suspension was diluted (1:1) in PBS at pH 7.4 to obtain a suitable erythrocyte suspension (cell density of 8 × 10^9 cell/mL). • - Hemolysis Assay The hemolysis assay determined the capability of different compounds to induce the hemolysis of the erythrocyte membrane. Stock solutions of each compound at 1 mg/mL in PBS at pH 7.4 were prepared. Different volumes (10–80 μL) were placed in polystyrene tubes, and an aliquot of 25 µL of the erythrocyte suspensions was added to each tube. The final volume was 1 mL. The tubes were incubated at room temperature under rotatory conditions. Then, the tubes were centrifuged at 10,000 rpm for 5 min. The supernatants’ absorbance at 540 nm (Shimadzu UV-160A, Shimadzu, Duisburg, Germany) was compared with that of the positive (erythrocytes hemolyzed with distilled water) and negative (erythrocyte suspension in PBS at pH 7.4) controls. The degree of hemolysis was determined using the following equation: Hemolysis (%) = 100 × (Abs − Abs0)/(Abs100 − Abs0) where Abs, Abs0, and Abs100 are the absorbance of the test samples, of the suspension treated with isotonic phosphate–buffered saline (PBS), and of the suspension of complete hemolysis treated with distilled water, respectively. • In Vitro Essay Using Cell Cultures The murine Swiss albino fibroblasts (3T3) and the squamous cell carcinoma (A431) cell lines were obtained from Celltec UB. Cells were grown in DMEM medium (4.5 g/L glucose) supplemented with 10% (v/v) FBS, 2 mM L-glutamine, 100 U/mL penicillin, and 100 µg/mL streptomycin at 37 °C with 5% CO2. Cells were routinely cultured in 75 cm^2 culture flasks and were trypsinized using trypsin–EDTA when the cells reached approximately 80% confluence. The trypan blue assay, which allows for the direct identification and enumeration of the live (unstained) and dead (blue) cells in the cell population, was used to evaluate the viability of the cells in the cell suspension obtained. • - Cell Viability Assays Cell lines of 3T3 (1 × 10^5 cells/mL) and A431 (5 × 10^4 cells/mL) were grown at defined densities in the 60 central wells of a 96-well plate. The cells were incubated for 24 h in 5% CO2 at 37 °C. […]

A431 cells = test: AO/EB double staining, cellular death events; type: cell-based, human; details: A431, 24 h, 10-160 µg/mL
[3] = test system: murine Swiss albino fibroblast (3T3) cell line; test: Cell viability, MTT assay, 3T3; type: cell-based; details: 24 h incubation, MTT endpoint
Description: as §3, §4

[4] = test system: A431 cell line (squamous cell carcinoma); test: Cell viability, MTT assay, A431; type: cell-based
Description: as §3, §4

Which LC50 [1] does the source give for `CC(C)(C)N1C(=O)C(Cl)(Cl)C1c1ccccc1` (centres unmarked) [Compound 1] here?
The LC50 was 14.9 µg/mL (≈ 54.8 µM).

What about the EC50 (Zebrafish embryos; Danio rerio, read-out: EC50 (dysmorphogenesis)) of the same molecule?
The EC50 was 5.23 µg/mL (≈ 19.2 µM).

What about the “teratogenic index (TI)” value (Zebrafish embryos; TI = LC50/EC50) of the same molecule?
The value was 2.85.

And the teratogenicity classification (Zebrafish embryos; TI > 2)?
Its teratogenicity classification is “potential teratogen”.

And the morphological abnormalities (Zebrafish embryos; embryos exposed 2 to 72 hpf)?
The morphological abnormalities was “pericardial edema, large yolk sacs, and flexion abnormalities”.

What about the “LC50 (lethality)” value (Zebrafish embryos; exposure 2 to 72 hpf, read at 72 hpf) of the same molecule?
Its value is 14.9 µg/mL (≈ 54.7 µM).

And the IC50 [2]?
The IC50 was greater than 250 µg/mL.

And the “mode of cell death” value (A431 cells)?
Its value is “induces cell death primarily via apoptosis”.

What about the “IC50 (MTT) 3T3” value [3] of the same molecule?
The value was 210.42 ± 2.40 µg/mL (≈ 773 µM).

What about the IC50 ([3]; Mus musculus, 24 h) of the same molecule?
Its IC50 is 210 µg/mL (≈ 772 µM).

What about the “IC50 (MTT) A431” value ([4]; 24 h incubation, MTT endpoint, A431) of the same molecule?
The value was 71.65 ± 1.23 µg/mL (≈ 263 µM).

And the IC50 ([4]; Homo sapiens, A-431, 24 h, 24 h incubation, MTT endpoint, A431, read-out: IC50 (MTT) A431)?
Its IC50 is 71 µg/mL (≈ 261 µM).

And the “SI (MTT), selectivity index” value ([4]; SI = IC50 (3T3)/IC50 (A431), MTT)?
Its value is 2.94.

And the “selective cytotoxicity, A431 in comparison with 3T3 cells” value ([4]; lower IC50 for A431 than 3T3)?
Its value is “some selective cytotoxicity”.

Reference: PMC12030062, “From In Vitro Cytotoxicity to In Vivo Zebrafish Assays: A Study on 3,3-Dichloro β-, γ- and δ-Lactams and Their Biological Activity Profiles” (Pharmaceuticals, 2025)
